Earlier results as cited in patent US20200129524A1, “PERSONALIZED CONTRACEPTIVE FORMULATIONS” (Agile Therapeutics, Inc., priority 2017, published 2020).

Molecular target: T1, SHBG (Homo sapiens, UniProt P04278)
T1 sequence (P04278 30-402): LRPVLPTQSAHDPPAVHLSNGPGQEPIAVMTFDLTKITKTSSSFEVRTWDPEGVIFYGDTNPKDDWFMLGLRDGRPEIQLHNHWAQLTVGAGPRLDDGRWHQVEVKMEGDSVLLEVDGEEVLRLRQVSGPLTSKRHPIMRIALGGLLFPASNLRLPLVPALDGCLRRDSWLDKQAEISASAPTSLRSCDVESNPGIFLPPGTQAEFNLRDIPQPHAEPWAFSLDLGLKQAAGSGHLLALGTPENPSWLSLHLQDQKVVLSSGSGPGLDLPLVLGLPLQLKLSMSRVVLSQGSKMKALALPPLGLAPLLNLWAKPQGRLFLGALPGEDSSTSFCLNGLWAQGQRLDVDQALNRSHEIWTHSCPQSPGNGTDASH
Conditions: testosterone being 100; cited from earlier work

C[C@]12CC[C@H]3[C@@H](CCC4=CC(=O)CC[C@@]43C)[C@@H]1CC[C@@H]2O [testosterone]
relative binding affinity to SHBG: 100%
